Results as given in EP0046242A1, “Anti-tumor agent comprising an organosilicon compound” (Shin-Etsu Chemical Co., Ltd., priority 1980, dated 1982).
In brackets after ≈: the same amount, converted by molar mass. Structures can show the parent of a compound that is named as a salt.

The compounds below were run on Ehrlich's cancer cells (assay: In vitro tissue culture test of tumor cell growth inhibition). Settings: Eagle's medium with 10 % calf blood plasma, 37 °C, compound added after 24 hours, three further days.
Type: cell-based
Method: (§1) An in vitro test by tissue culture was undertaken for the activity of 2-(2-aminoethylthio)ethyl trimethyl silane against the growth of three kinds of tumor cells. The tumor cells used in the test were Ehrlich's cancer cells, Lewis lung cancer cells and B-16 melanoma cells and each kind of the above tumor cells was cultured in several Eagle's nutrient media admixed with 10 % of calf blood plasma at 37 °C.
(§2) After 24 hours from the start of the culture, 2-(2-amino- ethylthio)ethyl trimethyl silane was added to each of the nutrient media in a different concentration and, after additional three days at the same temperature, the conentration IC50 was determined with which the multiplication of the tumor cells was inhibited in 50 % of the tested groups. The results were as shown below
Compound C[Si](C)(C)CCSCCN [Me3Si-(-CH2-)2-S-(-CH2-)2-NH2, 2-(2-aminoethylthio)ethyl trimethyl silane] has an IC50 of 12 µg/mL (≈ 67.6 µM).

What follows are compounds tested on Lewis lung cancer cells in the same assay as above. Settings: Lewis lung carcinoma, Eagle's medium with 10 % calf blood plasma, 37 °C, compound added after 24 hours, three further days.
Type: cell-based
Method: as §1, §2
Work on C[Si](C)(C)CCSCCN [Me3Si-(-CH2-)2-S-(-CH2-)2-NH2, 2-(2-aminoethylthio)ethyl trimethyl silane] yielded an IC50 of 14 µg/mL (≈ 78.9 µM).

These compounds were tested on B-16 melanoma cells in the same assay as above. Settings: Mus musculus, B16, Eagle's medium with 10 % calf blood plasma, 37 °C, compound added after 24 hours, three further days.
Type: cell-based
Method: as §1, §2
Compound C[Si](C)(C)CCSCCN [Me3Si-(-CH2-)2-S-(-CH2-)2-NH2, 2-(2-aminoethylthio)ethyl trimethyl silane] has an IC50 of 18 µg/mL (≈ 101 µM).

The compounds below were run on B-16 melanoma cells implanted in mice (assay: Animal test of growth inhibition of implanted B-16 melanoma in mice). Settings: Mus musculus, B16, read-out: Tumor inhibiting efficiency, female BDF1-JCR mice, 1 x 10^5 B-16 cells subcutaneously; oral, 100 mg once a day for 5 days from second day; tumor weight vs control at day 14.
Type: in vivo
Method: Animal tests were conducted to examine the activity of several compounds including 2-(2-aminoethylthio)ethyl trimethyl silane in the inhibiting power against the growth of the B-16 melanoma cells implanted in mice as the test animals.
Thus each of 12 female mice of the BDF1-JCR lineage was implanted subcutaneously with 1 x 10^5 cells of the B-16 black tumor.
Six of the thus treated mice were bred as such as a control group and the other six mice as the test group were orally administrated once a day with 100 mg of the test compound for 5 days beginning with the second day of the implantation.
The results of the tests were expressed by the tumor inhibiting efficiency in % calculated by the following equation, in which W^1 is the averaged tumor weight per mouse in the control group and W^2 is the averaged tumor weight per mouse in the test group. [formula]
For comparison, similar animal tests were undertaken with FT-207 as a derivative of 5-fluorouracil with the dose amount at one time increased to 130 mg.
CCN(CC)CSCC[Si](CC)(CC)CC [Et3Si-(-CH2)2-S-CH2-NEt2] showed an inhibition in vivo at 100 mg of 90.5%. CCN(CC)CSCCC[Si](CC)(CC)CC [Et3Si-(-CH2-)3-S-CH2-NEt2] gave an inhibition in vivo at 100 mg of 84.4%. With C[Si](C)(CCSCCN)c1ccccc1 [Ph·Me2Si-(-CH2-)2-S-(-CH2-)2-NH2, 2-(2-aminoethylthio)ethyl phenyl dimethyl silane] the inhibition in vivo at 100 mg was 82.6%. CCN(CC)CCSCCC[Si](CC)(CC)CC [Et3Si-(-CH2-)3-S-(-CH2-)2-NEt2] showed an inhibition in vivo at 100 mg of 76.7%. Work on CCN(CC)CSC[Si](C)(CC)CC [Me·Et2Si-CH2-S-CH2-NEt2] yielded an inhibition in vivo at 100 mg of 86.5%. Work on CC[Si](CC)(CC)CCSCCN [Et3Si-(-CH2-)2-S-(-CH2-)2-NH2, 2-(2-aminoethylthio)ethyl triethyl silane] yielded an inhibition in vivo at 100 mg of 90.8%. CCN(CC)CSCC[Si](C)(CC)CC [Me·Et2Si-(-CH2-)2-S-CH2-NEt2] gave an inhibition in vivo at 100 mg of 86.9%. In the case of CCN(CC)CSCC[Si](C)(C)C [Me3Si-(-CH2-)2-S-CH2-NEt2], the inhibition in vivo at 100 mg is reported as 89.2%. Compound C[Si](C)(C)CCSCCN [Me3Si-(-CH2-)2-S-(-CH2-)2-NH2, 2-(2-aminoethylthio)ethyl trimethyl silane] has an inhibition in vivo at 100 mg of 95.6%. Work on C[Si](C)(CCSCCN)CCC(F)(F)F [(CF3CH2CH2)Me2Si-(CH2-)2-S-(-CH2-)2-NH2, 2-(2-aminoethylthio)-ethyl 3,3,3-trifluoropropyl dimethyl silane] yielded an inhibition in vivo at 100 mg of 96.8%. With C[Si](C)(C)CCCSCCN [Me3Si-(-CH2-)3-S-(-CH2-)2-NH2, 3-(2-aminoethylthio)propyl trimethyl silane] the inhibition in vivo at 100 mg was 93.9%. Compound CCN(CC)CSC[Si](CC)(CC)CC [Et3Si-CH2-S-CH2-NEt2] has an inhibition in vivo at 100 mg of 81.7%. In the case of CCN(CC)CSCCC[Si](C)(C)C [Me3Si-(-CH2-)3-S-CH2-NEt2], the inhibition in vivo at 100 mg is reported as 83.9%. With C=C[Si](C)(C)CCSCCN [Vi·Me2Si-(-CH2-)2-S-(-CH2-)2-NH2, 2-(2-aminoethylthio) ethyl vinyl dimethyl silane] the inhibition in vivo at 100 mg was 95.7%. CC[Si](CC)(CC)CSCCN [Et3Si-CH2-S-(-CH2-)2-NH2, (2-aminoethylthio)methyl triethyl silane] showed an inhibition in vivo at 100 mg of 91.1%.

Same assay, conditions: comparison; female BDF1-JCR mice, B-16 cells subcutaneously; dose at one time 130 mg; tumor weight vs control at day 14
Compound O=c1[nH]c(=O)n(C2CCCO2)cc1F (stereo not drawn) [FT-207, reference compound] has a Tumor inhibiting efficiency of 20.5%.

Same assay, conditions: female BDF1-JCR mice, 1 x 10^5 B-16 cells subcutaneously; oral, 100 mg once a day for 5 days from second day; tumor weight vs control at day 14
Compound C[Si](C)(C)CCSCCN [Me3Si-(-CH2-)2-S-(-CH2-)2-NH2·CH3COOH] has a Tumor inhibiting efficiency of 95.0%. Compound C[Si](C)(C)CCSCCN [Me3Si-(-CH2-)2-S-(-CH2-)2-NH2·HCl, hydrochloride of 2-(2-aminoethylthio)ethyl trimethyl silane] has a Tumor inhibiting efficiency of 97.9%.
